Measured values from patent US12171760B2, “Use of glucocorticoid receptor modulators to potentiate checkpoint inhibitors” (Corcept Therapeutics Incorporated, priority 2016, dated 2024).

Tests used:
[1] = test system: mouse MC38 cancer cells; assay: MC38 tumor growth in mice, combination of CORT125134 and anti PD-1; assay type: in vivo; details: CORT125134 30 mg/kg orally daily in combination with mouse anti PD-1 antibody (clone RPM1-14, 10 mg/kg) i.p. twice a week; C57BL/6 mice, s.c. MC38 tumors; FIG. 1
Description: Suspensions of mouse MC38 cancer cells were injected subcutaneously into the left flank of 5-6 week old immunocompetent female mice (C57BL/6), 1 million cells per mouse. Tumors were allowed to grow until they reach a volume of 100 mm^3. Mice were then grouped into three groups, ten (10) per group. Group I was dosed with the anti-PD-1 vehicle (PBS, 10 ml/kg) i. p. twice a week and the CORT125134 vehicle p.o. (10% DMSO, 0.1% Tween 80 and 89.9% HPMC (0.5%), 10 ml/kg) daily. Group II was dosed with the mouse anti PD-1 antibody (clone RPM1-14, 10 mg/kg) i. p. twice a week. Group III was dosed with the mouse anti PD-1 antibody (clone RPM1-14, 10 mg/kg) i. p. twice a week and CORT125134 (a SGRM) (30 mg/kg) orally on a daily basis. The longest (L) and shortest (S) diameters of the tumors were measured three times a week with electronic calipers and tumor volume was calculated using the formula for an ellipsoid sphere: S^2×L×(0.5). The tumor growth data are shown in FIG. 1, in which the mean tumor volume as compared to the mean pre-dosing tumor volume for each group of mice is plotted against the number of days of tumor growth since initiation of the treatment.

[2] = test system: breast cancer; assay: Treating a breast cancer patient with the combination therapy (tumor load by enhanced magnetic resonance imaging); assay type: in vivo, human; details: CORT125134 200 mg once a day for eight weeks with pembrolizumab 3 mg/kg every 2 weeks
Description: A patient suffering from breast cancer is treated with pembrolizumab at a dose of 3 mg/kg every 2 weeks and CORT125134 at a dose of 200 mg once a day for eight weeks. Their tumor load is monitored using enhanced magnetic resonance imaging before, during and after the treatment.

[3] = test system: mouse CT26 cancer cells; assay: CT26 tumor growth in mice, combination of CORT125134 or CORT125281 and anti CTLA4; assay type: in vivo; details: SGRM 30 mg/kg orally daily in combination with mouse anti CTLA4 antibody (clone 9D9, 10 mg/kg) i.p. twice a week; C57BL/6 mice, s.c. CT26 tumors; FIG. 3
Description: Suspensions of mouse CT26 cancer cells were injected subcutaneously into the left flank of 6-7 week old immunocompetent female mice (C57BL/6), ½ million cells per mouse. Tumors were allowed to grow until they reached a volume of 50-100 mm^3. Mice were then grouped into three groups, ten (10) per group. Group I was dosed with the anti-CTLA4 vehicle (PBS, 10 ml/kg) i. p. twice a week and the CORT125134 vehicle p.o. (10% DMSO, 0.1% Tween 80 and 89.9% HPMC (0.5%), 10 ml/kg) daily. Group II was dosed with the mouse anti CTLA4 antibody (clone 9D9, 10 mg/kg) i. p. twice a week. Group III was dosed with the mouse anti CTLA4 antibody (clone 9D9, 10 mg/kg) i. p. twice a week and CORT125134 (a SGRM) (30 mg/kg) orally on a daily basis. Group IV was dosed with the mouse anti CTLA4 antibody (clone 9D9, 10 mg/kg) i. p. twice a week and CORT125281 (a SGRM) (30 mg/kg) orally on a daily basis.
(§1) The longest (L) and shortest (S) diameters of the tumors were measured three times a week with electronic calipers and tumor volume was calculated using the formula for an ellipsoid sphere: S^2×L×(0.5). The tumor growth data are shown in FIG. 3, in which the mean tumor volume for each group is plotted against the number of days of tumor growth since initiation of the treatment.

[4] = test system: mouse A20 cancer cells; assay: A20 tumor growth in mice, combination of CORT125281 and anti PD-1; assay type: in vivo; details: CORT125281 30 mg/kg orally daily in combination with mouse anti PD-1 antibody (clone RPM1-14, 10 mg/kg) i.p. twice a week; C57BL/6 mice, s.c. A20 tumors; FIG. 2
Description: Suspensions of mouse A20 cancer cells were injected subcutaneously into the left flank of 5-6 week old immunocompetent female mice (C57BL/6), ½ million cells per mouse. Tumors were allowed to grow until they reached a volume of 100 mm^3. Mice were then grouped into three groups, ten (10) per group. Group I was dosed with the anti-PD-1 vehicle (PBS, 10 ml/kg) i. p. twice a week and the CORT125281 vehicle p.o. (10% DMSO, 0.1% Tween 80 and 89.9% HPMC (0.5%), 10 ml/kg) daily. Group II was dosed with the mouse anti PD-1 antibody (clone RPM1-14, 10 mg/kg) i. p. twice a week. Group III was dosed with the mouse anti PD-1 antibody (clone RPM1-14, 10 mg/kg) i. p. twice a week and CORT125281 (a SGRM) (30 mg/kg) orally on a daily basis.
as §1, with “2,” for “3,”, “group of mice” for “group”

Structure (SMILES) | reducing tumor growth (mean tumor volume as compared to the mean pre-dosing tumor volume) [1] | reduction of the size of the tumor at the end of the treatment period [2] | reducing tumor growth (mean tumor volume) [3] | reducing tumor growth (mean tumor volume) [4]
Cn1cc(S(=O)(=O)N2CCC3=Cc4c(cnn4-c4ccc(F)cc4)C[C@]3(C(=O)c3cc(C(F)(F)F)ccn3)C2)cn1 [CORT125134, (R)-(1-(4-fluorophenyl)-6-((1-methyl-1H-pyrazol-4-yl)sulfonyl)-4,4a,5,6,7,8-hexahydro-1H-pyrazolo[3,4-g]isoquinolin-4a-yl)(4-(trifluoromethyl)pyridin-2-yl)methanone] | superior to both the anti PD-1 group and the vehicle group in reducing tumor growth | more than 20% | superior to both the anti CTLA4 group and the vehicle group in reducing tumor growth | 
Cn1ncc(S(=O)(=O)N2CC[C@H]3Cc4c(cnn4-c4ccc(F)cc4)C[C@]3(C(=O)c3cc(C(F)(F)F)ccn3)C2)n1 [CORT125281, ((4aR,8aS)-1-(4-fluorophenyl)-6-((2-methyl-2H-1,2,3-triazol-4-yl)sulfonyl)-4,4a,5,6,7,8,8a,9-octahydro-1H-pyrazolo[3,4-g]isoquinolin-4a-yl)(4-(trifluoromethyl)pyridin-2-yl)methanone] |  |  | superior to both the anti CTLA4 group and the vehicle group in reducing tumor growth | superior to both the anti PD-1 group and the vehicle group in reducing tumor growth
